According to patent US11572590B2, “Methods for evaluating tumor cell spheroids using 3D microfluidic cell culture device” (Dana-Farber Cancer Institute, Inc., priority 2017, dated 2023):
Read-outs that look alike come from different tables or passages of the source.

How the values were obtained:
Assay in all cases: SelectScreen Kinase Profiling, single point inhibition and IC50 for off-target kinases
Assay type in all cases: biochemical
[1] = biological target: T1, off-target kinases (Homo sapiens, UniProt Q9H093); conditions: NUAK2, LanthaScreen Binding
T1 sequence (Q9H093 1-628): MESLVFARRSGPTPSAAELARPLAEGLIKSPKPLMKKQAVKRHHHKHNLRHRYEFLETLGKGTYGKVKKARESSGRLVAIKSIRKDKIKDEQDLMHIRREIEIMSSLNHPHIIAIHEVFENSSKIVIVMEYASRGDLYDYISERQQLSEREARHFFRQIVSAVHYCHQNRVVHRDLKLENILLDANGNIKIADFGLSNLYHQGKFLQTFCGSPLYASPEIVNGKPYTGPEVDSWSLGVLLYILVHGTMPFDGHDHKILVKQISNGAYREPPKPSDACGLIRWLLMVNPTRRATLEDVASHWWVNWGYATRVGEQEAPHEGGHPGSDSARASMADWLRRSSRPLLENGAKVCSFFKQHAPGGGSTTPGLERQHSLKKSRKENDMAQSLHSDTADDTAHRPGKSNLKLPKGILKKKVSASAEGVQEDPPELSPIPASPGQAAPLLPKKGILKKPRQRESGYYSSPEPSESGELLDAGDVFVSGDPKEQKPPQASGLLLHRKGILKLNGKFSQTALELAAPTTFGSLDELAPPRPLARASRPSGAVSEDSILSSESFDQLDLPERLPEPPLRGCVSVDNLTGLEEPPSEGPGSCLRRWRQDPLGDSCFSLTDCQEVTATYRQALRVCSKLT

[2] = biological target: T2, off-target kinases (Homo sapiens, UniProt Q9BZL6); conditions: PRKD2 (PKD2), ATP Km app, ZLYTE
T2 sequence (Q9BZL6 1-878): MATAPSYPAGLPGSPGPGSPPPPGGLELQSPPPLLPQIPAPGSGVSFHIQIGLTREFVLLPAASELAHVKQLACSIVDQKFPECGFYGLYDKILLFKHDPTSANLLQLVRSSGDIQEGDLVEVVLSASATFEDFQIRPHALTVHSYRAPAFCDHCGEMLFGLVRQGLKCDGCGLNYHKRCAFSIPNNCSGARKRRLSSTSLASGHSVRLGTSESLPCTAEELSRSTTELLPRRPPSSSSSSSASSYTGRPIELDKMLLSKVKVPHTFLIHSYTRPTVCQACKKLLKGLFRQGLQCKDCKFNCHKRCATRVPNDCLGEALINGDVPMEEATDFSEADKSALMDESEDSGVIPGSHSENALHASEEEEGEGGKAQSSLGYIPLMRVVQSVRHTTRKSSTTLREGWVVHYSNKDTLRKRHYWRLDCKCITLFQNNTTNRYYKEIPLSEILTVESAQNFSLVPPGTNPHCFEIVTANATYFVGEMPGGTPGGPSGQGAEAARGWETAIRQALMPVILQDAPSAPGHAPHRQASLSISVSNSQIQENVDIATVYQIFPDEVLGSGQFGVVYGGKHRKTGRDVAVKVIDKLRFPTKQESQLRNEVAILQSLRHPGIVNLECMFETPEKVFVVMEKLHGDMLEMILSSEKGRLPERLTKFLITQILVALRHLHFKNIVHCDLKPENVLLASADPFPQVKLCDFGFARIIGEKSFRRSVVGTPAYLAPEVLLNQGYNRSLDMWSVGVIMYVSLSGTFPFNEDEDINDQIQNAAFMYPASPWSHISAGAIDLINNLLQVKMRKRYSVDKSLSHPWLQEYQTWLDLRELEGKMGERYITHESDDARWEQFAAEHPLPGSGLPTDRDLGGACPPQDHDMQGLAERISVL

[3] = biological target: off-target kinases (Homo sapiens, UniProt Q15208); conditions: STK38 (NDR), LanthaScreen Binding
[4] = biological target: off-target kinases (Homo sapiens, UniProt P08631); conditions: HCK, ZLYTE, ATP Km app
Chain of off-target kinases (Homo sapiens, UniProt P08631) (P08631 whole entry): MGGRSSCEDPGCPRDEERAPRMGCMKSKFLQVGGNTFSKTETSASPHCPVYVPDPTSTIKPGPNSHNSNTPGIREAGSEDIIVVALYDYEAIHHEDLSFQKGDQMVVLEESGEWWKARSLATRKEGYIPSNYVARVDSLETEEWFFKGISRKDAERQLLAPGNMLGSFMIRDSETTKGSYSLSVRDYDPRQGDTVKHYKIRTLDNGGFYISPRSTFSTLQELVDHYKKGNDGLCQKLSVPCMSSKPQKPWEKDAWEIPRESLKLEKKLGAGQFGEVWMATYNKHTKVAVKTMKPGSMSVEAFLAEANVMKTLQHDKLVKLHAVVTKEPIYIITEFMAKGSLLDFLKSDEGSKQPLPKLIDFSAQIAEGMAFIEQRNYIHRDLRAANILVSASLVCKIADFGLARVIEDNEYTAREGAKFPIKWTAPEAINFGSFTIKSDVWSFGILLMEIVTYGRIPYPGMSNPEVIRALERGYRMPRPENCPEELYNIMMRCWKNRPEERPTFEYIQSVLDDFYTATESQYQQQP

Chain of off-target kinases (Homo sapiens, UniProt Q15208) (Q15208 whole entry): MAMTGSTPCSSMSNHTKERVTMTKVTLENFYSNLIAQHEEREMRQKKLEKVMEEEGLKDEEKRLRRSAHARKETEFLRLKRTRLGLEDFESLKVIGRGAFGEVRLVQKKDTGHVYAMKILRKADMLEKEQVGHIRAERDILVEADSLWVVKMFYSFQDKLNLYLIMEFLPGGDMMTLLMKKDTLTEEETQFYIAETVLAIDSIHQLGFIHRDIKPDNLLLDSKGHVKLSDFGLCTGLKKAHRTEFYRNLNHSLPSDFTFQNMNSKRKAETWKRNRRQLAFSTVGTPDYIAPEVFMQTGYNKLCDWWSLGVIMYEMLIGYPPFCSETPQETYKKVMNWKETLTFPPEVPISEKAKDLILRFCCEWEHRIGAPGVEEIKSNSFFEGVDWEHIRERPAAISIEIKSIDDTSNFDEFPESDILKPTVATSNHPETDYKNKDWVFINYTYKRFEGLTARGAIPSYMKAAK

Compound: N#Cc1cc(-c2ncnc(Nc3ccc(N4CCN(C5COC5)CC4)cc3)n2)ccc1OC1CCOCC1 [Compound 1, 5-(4-((4-(4-(oxetan-3-yl)piperazin-1-yl)phenyl)amino)-1,3,5-triazin-2-yl)-2-((tetrahydro-2H-pyran-4-yl)oxy)benzonitrile]
- inhibition ([1]; read-out: % Inhibition 1): 54%
- inhibition ([1]; read-out: % Inhibition 2): 52%
- inhibition ([1]; read-out: % Inhibition Avg): 53%
- inhibition ([2]; read-out: % Inhibition 1): 99%
- inhibition ([2]; read-out: % Inhibition 2): 97%
- inhibition ([2]; read-out: % Inhibition Avg): 98%
- inhibition ([3]; read-out: % Inhibition 1): 51%
- inhibition ([3]; read-out: % Inhibition 2): 49%
- inhibition ([3]; read-out: % Inhibition Avg): 50%
- inhibition ([4]; read-out: % Inhibition 1): 26%
- inhibition ([4]; read-out: % Inhibition 2): 28%
- inhibition ([4]; read-out: % Inhibition Avg): 27%
